We go through eleven compounds from patent publication US20140228349A1, “5,7-SUBSTITUTED-IMIDAZO[1,2-C]PYRIMIDINES” (Array BioPharma Inc., priority 2011, published 2014).

pIC50: −log10 of the molar value. Bounds are passed on as bounds.

Assay type in all cases: biochemical
One assay deals with T1, JAK3 (Homo sapiens, UniProt P52333).
T1 construct: purchased Invitrogen Corporation, Carlsbad, Calif; IVGN PV4080
T1 sequence (P52333 1-1124): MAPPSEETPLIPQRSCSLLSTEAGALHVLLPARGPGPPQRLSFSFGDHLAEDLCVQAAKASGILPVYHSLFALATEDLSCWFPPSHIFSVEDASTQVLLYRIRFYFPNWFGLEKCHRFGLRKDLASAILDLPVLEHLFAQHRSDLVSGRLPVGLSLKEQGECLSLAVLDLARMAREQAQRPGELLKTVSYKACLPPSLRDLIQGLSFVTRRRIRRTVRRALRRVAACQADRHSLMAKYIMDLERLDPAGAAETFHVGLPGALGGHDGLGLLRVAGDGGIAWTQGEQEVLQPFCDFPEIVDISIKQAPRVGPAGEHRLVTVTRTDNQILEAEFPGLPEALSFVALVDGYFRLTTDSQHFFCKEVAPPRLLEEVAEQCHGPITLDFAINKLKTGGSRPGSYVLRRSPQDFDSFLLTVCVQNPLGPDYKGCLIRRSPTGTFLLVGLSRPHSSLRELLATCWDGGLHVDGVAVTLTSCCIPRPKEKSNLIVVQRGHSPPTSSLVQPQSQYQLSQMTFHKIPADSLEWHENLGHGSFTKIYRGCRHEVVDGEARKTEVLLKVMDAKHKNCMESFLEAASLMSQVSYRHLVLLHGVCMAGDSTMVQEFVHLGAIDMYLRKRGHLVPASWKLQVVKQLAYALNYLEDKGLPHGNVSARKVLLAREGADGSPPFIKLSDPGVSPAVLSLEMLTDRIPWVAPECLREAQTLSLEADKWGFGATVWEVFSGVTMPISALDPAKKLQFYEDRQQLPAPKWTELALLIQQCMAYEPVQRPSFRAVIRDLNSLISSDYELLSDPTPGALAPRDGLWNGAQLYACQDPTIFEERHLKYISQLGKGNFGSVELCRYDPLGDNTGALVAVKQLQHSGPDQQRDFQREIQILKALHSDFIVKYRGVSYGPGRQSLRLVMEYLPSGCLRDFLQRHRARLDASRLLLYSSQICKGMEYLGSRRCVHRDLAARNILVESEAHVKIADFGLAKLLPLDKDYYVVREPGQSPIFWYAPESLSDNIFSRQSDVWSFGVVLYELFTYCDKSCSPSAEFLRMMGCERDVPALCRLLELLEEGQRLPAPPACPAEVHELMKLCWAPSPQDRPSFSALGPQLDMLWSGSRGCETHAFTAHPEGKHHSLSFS
In words: JAK3 Inhibition Assay (Omnia kinase fluorescence peptide substrate). Particulars: averaged IC50 ranges; 10 μM (Km app) or 1 mM ATP, 2.5 nM JAK3. The text has this:
(§1) The assays described in Examples A, B, C and D for the determination of Tyk2, JAK1, JAK2 and JAK3 kinase activity, respectively, utilized the Omnia® Kinase fluorescence peptide substrate-based technology (Invitrogen). The specific components of the assay mixture are described in Examples A, B, C and D. In these assays, Mg^2+ is chelated upon phosphorylation of the Omnia peptide by the kinase to form a bridge between the chelation-enhanced fluorophore Sox and the phosphate, resulting in an increase in fluorescence emission at 485 nm when excited at […]. The reactions were therefore read at excitation 360 nm and emission was measured at 485 nm every 50 seconds for 45 minutes using a PerkinElmer EnVision Multilabel Plate Reader.
(§2) The final buffer conditions for Tyk2, JAK1, JAK2, and JAK3 assays were as follows: 25 mM HEPES, pH 7.4, 10 mM MgCl2, 0.01% Triton X-100 and 1 mM DTT.
(§3) Compounds were prepared at 50× the final concentration in DMSO by conducting 3-fold serial dilutions from a 500-μM intermediate dilution to give a 10-point dosing curve having a high dose of 10 μM. Two-μL aliquots of these were transferred to a fresh plate for a ten-fold intermediate dilution with assay buffer. Five-μL aliquots of the diluted compounds were then transferred to 20-μL of assay mixtures described in Examples A, B, C and D for a final concentration of DMSO of 2%. A standard or reference compound was typically included on each assay plate to validate that plate. For each plate, percent of control (POC) values were calculated for each well according to the following equation: […]
(§4) IC50's were estimated from the POC's using a standard 4-parameter logistic model:
(§5) The IC50 is defined as the concentration of inhibitor at which the POC equals 50 for the fitted curve.
Compounds of Formula I were screened for their ability to inhibit JAK3 using the general enzyme inhibition assay method, in which the assay mixture contained 10 μM (Km app) or 1 mM ATP, 10 μM Omnia® Y7 peptide (Catalog #IVGN KNZ3071C, Invitrogen Corporation, Carlsbad, Calif.) and 2.5 nM JAK3 in a total volume of 20 μL. JAK3 was purchased from Invitrogen Corporation, Carlsbad, Calif. (catalog #IVGN PV4080).

For another assay, the target named is T2, Human Tyk2 kinase domain (Homo sapiens, UniProt P29597).
T2 construct: comprising amino acids 886 to 1187; His10 (10 histidine residues) (C, cleaved yes); made in house
T2 sequence (P29597 886-1187): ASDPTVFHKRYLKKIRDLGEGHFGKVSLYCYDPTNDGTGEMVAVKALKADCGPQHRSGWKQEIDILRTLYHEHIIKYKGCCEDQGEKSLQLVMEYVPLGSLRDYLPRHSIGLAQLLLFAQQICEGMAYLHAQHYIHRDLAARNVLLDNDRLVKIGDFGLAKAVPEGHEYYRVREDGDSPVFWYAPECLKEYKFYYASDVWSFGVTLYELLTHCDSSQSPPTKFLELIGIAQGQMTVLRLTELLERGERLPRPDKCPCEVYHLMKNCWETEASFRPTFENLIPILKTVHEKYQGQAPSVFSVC
In words: Tyk2 Inhibition Assay (Omnia kinase fluorescence peptide substrate). The conditions noted are these: averaged IC50 ranges; 10 μM (Km app) or 1 mM ATP, 2 nM Tyk2.
Excerpt: as §1, §2, §3, §4, §5
Compounds of Formula I were screened for their ability to inhibit Tyk2 using the general enzyme inhibition assay method, in which the assay mixture contained 10 μM (Km app) or 1 mM ATP, 8 μM Omnia® Y12 peptide (Catalog #IVGN KPZ3121C; Invitrogen Corporation, Carlsbad, Calif.) and 2 nM Tyk2 in a total volume of 20 μL. Human Tyk2 kinase domain, comprising amino acids 886 to 1187 with 10 additional histidine residues (histidine tag) on the carboxy terminus, was expressed and purified from bacculovirus in-house at Array BioPharma Inc. (Boulder, Colo.). The histidine tag was cleaved after purification using standard conditions.

Another assay has as its target T3, JAK1 (Homo sapiens, UniProt P23458).
T3 construct: purchased Invitrogen Corporation, Carlsbad, Calif; IVGN PV4775
As to the kind of experiment: JAK1 Inhibition Assay (Omnia kinase fluorescence peptide substrate). Particulars: averaged IC50 ranges; 40 μM (Km app) or 1 mM ATP, 15 nM JAK1.
Excerpt: as §1, §2, §3, §4, §5
Compounds of Formula I were screened for their ability to inhibit JAK1 using the general enzyme inhibition assay method, in which the assay mixture contained 40 μM (Km app) or 1 mM ATP, 8 μM Omnia® Y12 peptide (Catalog #IVGN KPZ3121C; Invitrogen Corporation, Carlsbad, Calif.) and 15 nM JAK1 in a total volume of 20 μL. JAK1 was purchased from Invitrogen Corporation, Carlsbad, Calif. (catalog #IVGN PV4775).

The target of the next assay is T4, JAK2 (Homo sapiens, UniProt O60674).
T4 construct: purchased Invitrogen Corporation, Carlsbad, Calif; IVGN PV4288
T4 sequence (O60674 whole entry): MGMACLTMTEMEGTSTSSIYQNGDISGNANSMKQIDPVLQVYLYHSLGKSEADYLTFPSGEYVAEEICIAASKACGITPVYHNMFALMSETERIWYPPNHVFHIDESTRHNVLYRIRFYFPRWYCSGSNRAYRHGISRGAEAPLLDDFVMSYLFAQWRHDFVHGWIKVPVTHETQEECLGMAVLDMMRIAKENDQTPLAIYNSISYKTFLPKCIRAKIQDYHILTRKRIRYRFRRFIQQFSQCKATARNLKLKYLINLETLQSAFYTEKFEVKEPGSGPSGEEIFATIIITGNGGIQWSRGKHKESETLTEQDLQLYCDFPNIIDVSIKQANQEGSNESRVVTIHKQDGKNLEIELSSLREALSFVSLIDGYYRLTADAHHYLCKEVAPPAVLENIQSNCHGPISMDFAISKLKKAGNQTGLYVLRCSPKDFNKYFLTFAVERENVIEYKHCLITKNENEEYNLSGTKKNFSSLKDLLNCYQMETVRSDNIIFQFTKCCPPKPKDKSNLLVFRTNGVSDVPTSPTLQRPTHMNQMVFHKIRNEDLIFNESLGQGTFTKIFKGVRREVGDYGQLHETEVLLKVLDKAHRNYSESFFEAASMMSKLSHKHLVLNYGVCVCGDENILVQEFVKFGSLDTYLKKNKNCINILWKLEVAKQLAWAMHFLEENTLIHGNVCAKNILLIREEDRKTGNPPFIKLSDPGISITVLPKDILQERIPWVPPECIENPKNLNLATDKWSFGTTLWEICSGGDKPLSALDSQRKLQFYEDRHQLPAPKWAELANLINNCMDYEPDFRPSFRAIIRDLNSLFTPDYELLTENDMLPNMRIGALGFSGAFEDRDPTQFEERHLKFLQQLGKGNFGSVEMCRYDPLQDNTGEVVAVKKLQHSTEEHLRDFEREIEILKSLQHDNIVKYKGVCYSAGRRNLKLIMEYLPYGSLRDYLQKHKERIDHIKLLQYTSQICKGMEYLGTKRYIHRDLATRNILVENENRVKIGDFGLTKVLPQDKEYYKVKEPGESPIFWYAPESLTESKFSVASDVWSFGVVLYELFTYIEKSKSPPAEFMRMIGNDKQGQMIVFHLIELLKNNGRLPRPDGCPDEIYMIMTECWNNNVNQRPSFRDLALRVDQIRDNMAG
In words: JAK2 Inhibition Assay (Omnia kinase fluorescence peptide substrate). Particulars: averaged IC50 ranges; 25 μM (Km app) or 1 mM ATP, 5 nM JAK2.
Excerpt: as §1, §2, §3, §4, §5
Compounds of Formula I were screened for their ability to inhibit JAK2 using the general enzyme inhibition assay method, in which the assay mixture contained 25 μM (Km app) or 1 mM ATP, 10 μM Omnia® Y7 peptide (Catalog #IVGN KNZ3071C, Invitrogen Corporation, Carlsbad, Calif.) and 5 nM JAK2 in a total volume of 20 μL. JAK2 was purchased from Invitrogen Corporation, Carlsbad, Calif. (catalog #IVGN PV4288).

T3 sequence (P23458 whole entry): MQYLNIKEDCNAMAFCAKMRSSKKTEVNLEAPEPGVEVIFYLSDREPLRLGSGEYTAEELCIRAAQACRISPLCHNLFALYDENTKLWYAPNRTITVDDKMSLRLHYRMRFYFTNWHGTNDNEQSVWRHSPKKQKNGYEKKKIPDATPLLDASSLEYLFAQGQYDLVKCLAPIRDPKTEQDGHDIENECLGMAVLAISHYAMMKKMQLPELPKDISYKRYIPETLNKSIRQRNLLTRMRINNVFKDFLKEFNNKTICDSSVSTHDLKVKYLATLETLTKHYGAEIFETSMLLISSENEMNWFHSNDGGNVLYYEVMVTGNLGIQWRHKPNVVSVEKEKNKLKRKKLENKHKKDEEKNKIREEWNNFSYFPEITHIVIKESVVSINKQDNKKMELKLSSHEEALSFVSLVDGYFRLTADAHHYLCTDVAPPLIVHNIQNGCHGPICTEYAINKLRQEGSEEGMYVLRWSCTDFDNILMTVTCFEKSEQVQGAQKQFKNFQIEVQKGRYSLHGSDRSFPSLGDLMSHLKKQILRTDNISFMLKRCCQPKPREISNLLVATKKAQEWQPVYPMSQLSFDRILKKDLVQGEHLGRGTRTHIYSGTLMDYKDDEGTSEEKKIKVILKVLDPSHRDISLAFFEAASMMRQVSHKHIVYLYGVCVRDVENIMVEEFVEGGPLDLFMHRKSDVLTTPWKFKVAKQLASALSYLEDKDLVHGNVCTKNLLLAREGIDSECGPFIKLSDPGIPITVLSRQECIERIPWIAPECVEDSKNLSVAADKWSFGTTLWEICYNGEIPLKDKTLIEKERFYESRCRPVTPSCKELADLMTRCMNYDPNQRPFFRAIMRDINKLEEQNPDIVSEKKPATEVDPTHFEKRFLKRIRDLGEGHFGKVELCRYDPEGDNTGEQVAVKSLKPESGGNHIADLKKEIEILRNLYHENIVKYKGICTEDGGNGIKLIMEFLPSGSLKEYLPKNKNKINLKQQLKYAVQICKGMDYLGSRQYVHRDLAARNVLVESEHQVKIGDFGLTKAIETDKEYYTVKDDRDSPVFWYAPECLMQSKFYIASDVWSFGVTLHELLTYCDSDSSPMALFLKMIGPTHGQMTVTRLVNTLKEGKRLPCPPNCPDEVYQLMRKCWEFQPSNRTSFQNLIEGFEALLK

As usually defined, the pIC50 is the IC50 on a negative log10 scale, so that one unit is a factor of ten. In the case of `CCC1(n2cc(-c3nc(-c4cnn(C)c4)cc4nccn34)cn2)CN(S(=O)(=O)C(F)(F)F)C1` [Example 20, 5-(1-(3-ethyl-1-(trifluoromethylsulfonyl)azetidin-3-yl)-1H-pyrazol-4-yl)-7-(1-methyl-1H-pyrazol-4-yl)imidazo[1,2-c]pyrimidine], the pIC50 was 6.00 to 7.00 at JAK3, 7.00 to 8.00 against Human Tyk2 kinase domain, 6.00 to 7.00 at JAK1 and 7.00 to 8.00 at JAK2.

Regarding `Cn1cc(-c2cc3nccn3c(-c3ccn([C@H](CCF)[C@H]4CC4(F)F)c3)n2)cn1` [Example 23, 5-(1-((R)-1-((R)-2,2-difluorocyclopropyl)-3-fluoropropyl)-1H-pyrrol-3-yl)-7-(1-methyl-1H-pyrazol-4-yl)imidazo[1,2-c]pyrimidine], the pIC50 on JAK3 is 7.00 to 8.00; against Human Tyk2 kinase domain, over 8.00; at JAK1, 7.00 to 8.00; on JAK2, 7.00 to 8.00.

As for `Cn1cc(-c2cc3nccn3c(-c3cnn(C(CC(N)=O)C4CC4)c3)n2)cn1` (stereo not drawn) [Example 63, 3-cyclopropyl-3-(4-(7-(1-methyl-1H-pyrazol-4-yl)imidazo[1,2-c]pyrimidin-5-yl)-1H-pyrazol-1-yl)propanamide], the pIC50 at JAK3 was under 6.00; against Human Tyk2 kinase domain it was 6.00 to 7.00; on JAK1, under 6.00; on JAK2, 6.00 to 7.00.

As for `Cn1cc(-c2cc3nccn3c(-c3cnn([C@H](CC=C(F)F)C4CC4)c3)n2)cn1` [Example 49, (R)-5-(1-(1-cyclopropyl-4,4-difluorobut-3-en-1-yl)-1H-pyrazol-4-yl)-7-(1-methyl-1H-pyrazol-4-yl)imidazo[1,2-c]pyrimidine], the pIC50 is 7.00 to 8.00 against JAK3, over 8.00 against Human Tyk2 kinase domain, 7.00 to 8.00 against JAK1 and 7.00 to 8.00 against JAK2.

On to `Cn1cc(-c2cc3nccn3c(-c3cnn(C(CCC(F)F)C4CC4)c3)n2)cn1` (stereo not drawn) [Example 47, 5-(1-(1-cyclopropyl-4,4-difluorobutyl)-1H-pyrazol-4-yl)-7-(1-methyl-1H-pyrazol-4-yl)imidazo[1,2-c]pyrimidine], for which the pIC50 is 6.00 to 7.00 against JAK3, 7.00 to 8.00 against Human Tyk2 kinase domain, 6.00 to 7.00 on JAK1 and 7.00 to 8.00 at JAK2.

`Cn1cc(-c2cc3nccn3c(-c3cnn(C4(CC(C)(C)O)CN(S(=O)(=O)C(F)(F)F)C4)c3)n2)cn1` [Example 94, 2-methyl-1-(3-(4-(7-(1-methyl-1H-pyrazol-4-yl)imidazo[1,2-c]pyrimidin-5-yl)-1H-pyrazol-1-yl)-1-((trifluoromethyl)sulfonyl)azetidin-3-yl)propan-2-ol]: the pIC50 on JAK3 is under 6.00; on Human Tyk2 kinase domain, 6.00 to 7.00; on JAK1, 6.00 to 7.00; on JAK2, 6.00 to 7.00.

For the compound `Cn1cc(-c2cc3nccn3c(-c3cnn(C4(CCF)CCC4)c3)n2)cn1` [Example 52, 5-(1-(1-(2-fluoroethyl)cyclobutyl)-1H-pyrazol-4-yl)-7-(1-methyl-1H-pyrazol-4-yl)imidazo[1,2-c]pyrimidine], the pIC50 on JAK3 was 6.00 to 7.00; on Human Tyk2 kinase domain, 7.00 to 8.00; against JAK1 it was 6.00 to 7.00; at JAK2, 6.00 to 7.00.

As for `CCC(CCF)n1cc(-c2nc(-c3cnn(C)c3)cc3nccn23)cn1` (stereo not drawn) [Example 57, 5-(1-(1-fluoropentan-3-yl)-1H-pyrazol-4-yl)-7-(1-methyl-1H-pyrazol-4-yl)imidazo[1,2-c]pyrimidine], the pIC50 at JAK3 was 6.00 to 7.00; at Human Tyk2 kinase domain it was 7.00 to 8.00; at JAK1, 6.00 to 7.00; at JAK2 it was 6.00 to 7.00.

Turning to `Cn1cc(-c2cc3nccn3c(-c3cnn(C4(CCF)CN(S(=O)(=O)C(F)(F)F)C4)c3)n2)cn1` [Example 18, 5-(1-(3-(2-Fluoroethyl)-1-(trifluoromethylsulfonyl)azetidin-3-yl)-1H-pyrazol-4-yl)-7-(1-methyl-1H-pyrazol-4-yl)imidazo[1,2-c]pyrimidine], the pIC50 against JAK3 is 6.00 to 7.00; against Human Tyk2 kinase domain, over 8.00; at JAK1, 6.00 to 7.00; at JAK2 it was 7.00 to 8.00.

As to `Cn1cc(-c2cc3nccn3c(-c3cnn(C4(CCF)CN(S(=O)(=O)C(F)F)C4)c3)n2)cn1` [Example 51], the pIC50 was 7.00 to 8.00 against JAK3, over 8.00 at Human Tyk2 kinase domain, 7.00 to 8.00 at JAK1 and 7.00 to 8.00 on JAK2.

In the case of `Cn1cc(-c2cc3nccn3c(-c3ccn([C@H](CCF)[C@H]4CC4(F)F)c3)n2)cn1` [Example 29, 5-(1-((R)-1-((R)-2,2-difluorocyclopropyl)-3-fluoropropyl)-1H-pyrrol-3-yl)-7-(1-methyl-1H-pyrazol-4-yl)imidazo[1,2-c]pyrimidine], the pIC50 against Human Tyk2 kinase domain was over 8.00; against JAK2, 7.00 to 8.00.
